Structures can show the parent of a compound that is named as a salt.

The target in this test is T1, Human FAAH (Homo sapiens, UniProt O00519).
T1 construct: made in house
T1 sequence (O00519 1-579): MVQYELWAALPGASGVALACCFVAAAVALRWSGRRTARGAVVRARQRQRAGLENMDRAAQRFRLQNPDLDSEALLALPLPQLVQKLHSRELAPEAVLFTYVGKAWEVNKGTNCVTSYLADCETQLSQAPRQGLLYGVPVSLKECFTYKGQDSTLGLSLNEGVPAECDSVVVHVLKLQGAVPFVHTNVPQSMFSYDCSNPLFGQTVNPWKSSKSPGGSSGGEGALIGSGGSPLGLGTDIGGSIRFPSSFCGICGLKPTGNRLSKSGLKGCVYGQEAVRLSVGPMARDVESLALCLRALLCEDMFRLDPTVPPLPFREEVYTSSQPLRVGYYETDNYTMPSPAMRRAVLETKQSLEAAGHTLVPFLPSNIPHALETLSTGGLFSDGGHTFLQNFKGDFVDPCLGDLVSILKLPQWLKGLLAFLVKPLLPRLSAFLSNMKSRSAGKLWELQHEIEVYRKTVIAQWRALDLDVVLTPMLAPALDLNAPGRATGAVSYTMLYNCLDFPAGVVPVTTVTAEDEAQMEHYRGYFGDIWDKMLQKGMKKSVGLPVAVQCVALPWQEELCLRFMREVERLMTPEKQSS
Nature of the test: FAAH assay (glutamate dehydrogenase-coupled, oleamide substrate, absorbance at 340 nm). The test is classed as biochemical. Conditions: irreversible inhibition, 1-4 nM FAAH, pH 7.4, 30° C., 90 min, read-out: hFAAH kinact/Ki.
On to `Cc1cccnc1Oc1cccc(C=C2CCN(C(=O)Nc3cccnn3)CC2)c1` [Example 43, 4-(3-(3-methylpyridin-2-yloxy)benzylidene)-N-(pyridazin-3-yl)piperidine-1-carboxamide], for which the kinact/KI was 1410 M⁻¹ s⁻¹.

In the case of `O=C(Nc1cccnc1)N1CCC(=Cc2cccc(Oc3ccc(Br)cn3)c2)CC1` [Example 33, 4-{3-[(5-bromopyridin-2-yl)oxy]benzylidene}-N-pyridin-3-ylpiperidine-1-carboxamide], the kinact/KI was 26300 M⁻¹ s⁻¹.

As for `CC(C)Oc1ccc(Oc2cccc(C=C3CCN(C(=O)Nc4cccnc4)CC3)c2)nc1` [Example 51, 4-(3-(5-isopropoxypyridin-2-yloxy)benzylidene)-N-(pyridin-3-yl)piperidine-1-carboxamide], the kinact/KI amounted to 4330 M⁻¹ s⁻¹.

For the compound `CCOc1cc(C=C2CCN(C(=O)Nc3cccnc3)CC2)cc(Oc2ccc(C(F)(F)F)cn2)c1` [Example 58, 4-(3-ethoxy-5-(5-(trifluoromethyl)pyridin-2-yloxy)benzylidene)-N-(pyridin-3-yl)piperidine-1-carboxamide], the kinact/KI came out at 322 M⁻¹ s⁻¹.

As to `CCc1cc(NC(=O)N2CCC(=Cc3cccc(Oc4ccc(C(F)(F)F)cn4)c3)CC2)[nH]n1` [Example 80, N-(3-ethyl-1H-pyrazol-5-yl)-4-(3-{[5-(trifluoromethyl)pyridin-2-yl]oxy}benzylidene)piperidine-1-carboxamide trifluoroacetate], the kinact/KI worked out at 353 M⁻¹ s⁻¹.

`O=C(NC(=O)N1CCC(=Cc2cccc(Oc3ccc(C(F)(F)F)cn3)c2)CC1)c1ccccn1` [Example 15, N-{[4-(3-{[5-(trifluoromethyl)pyridin-2-yl]oxy}benzylidene)piperidin-1-yl]carbonyl}pyridine-2-carboxamide]: the kinact/KI stood at 12900 M⁻¹ s⁻¹.

Consider `O=C(Nc1cccnn1)N1CCC(=Cc2cccc(Oc3ccc(C(F)(F)F)nc3)c2)CC1` [Example 57, 4-(3-(6-(trifluoromethyl)pyridin-3-yloxy)benzylidene)-N-(pyridazin-3-yl)piperidine-1-carboxamide], for which the kinact/KI is 16800 M⁻¹ s⁻¹.

On to `Cc1cncc(NC(=O)N2CCC(=Cc3cccc(Oc4ccc(C(F)(F)F)cn4)c3)CC2)c1` [Example 7, N-(5-methylpyridin-3-yl)-4-(3-{[5-(trifluoromethyl)pyridin-2-yl]oxy}benzylidene)piperidine-1-carboxamide], for which the kinact/KI stood at 2880 M⁻¹ s⁻¹.

Consider `Cc1cc(C)nc(Oc2cccc(C=C3CCN(C(=O)Nc4cccnn4)CC3)c2)n1` [Example 120, 4-{3-[(4,6-dimethylpyrimidin-2-yl)oxy]benzylidene}-N-pyridazin-3-ylpiperidine-1-carboxamide], for which the kinact/KI was under 14.5 M⁻¹ s⁻¹.

With `COc1ncccc1NC(=O)N1CCC(=Cc2cccc(Oc3ccc(C(F)(F)F)cn3)c2)CC1` [Example 129, N-(2-methoxypyridin-3-yl)-4-(3-{[5-(trifluoromethyl)pyridin-2-yl]oxy}benzylidene)piperidine-1-carboxamide], the kinact/KI came out at 1730 M⁻¹ s⁻¹.

Turning to `C#CCCCOc1ccc(Oc2cccc(C=C3CCN(C(=O)Nc4cccnn4)CC3)c2)nc1` [Example 90, 4-(3-(5-(pent-4-ynyloxy)pyridin-2-yloxy)benzylidene)-N-(Pyridazin-3-yl)piperidine-1-carboxamide], the kinact/KI amounted to 7600 M⁻¹ s⁻¹.

With `COc1ccc(NC(=O)N2CCC(=Cc3cccc(Oc4ccc(C(F)(F)F)cn4)c3)CC2)c(C)n1` [Example 140, N-(6-methoxy-2-methylpyridin-3-yl)-4-(3-{[5-(trifluoromethyl)pyridin-2-yl]oxy}benzylidene)piperidine-1-carboxamide], the kinact/KI turned out to be 837 M⁻¹ s⁻¹.

`Cc1cc(C(F)(F)F)cc(Oc2cccc(C=C3CCN(C(=O)Nc4cccnn4)CC3)c2)n1` [Example 116, 4-(3-{[6-methyl-4-(trifluoromethyl)pyridin-2-yl]oxy}benzylidene)-N-pyridazin-3-ylpiperidine-1-carboxamide]: the kinact/KI was determined as 40.8 M⁻¹ s⁻¹.

As to `O=C(Nc1cnoc1)N1CCC(=Cc2cccc(Oc3ccc(C(F)(F)F)cn3)c2)CC1` [Example 75, N-isoxazol-4-yl-4-(3-{[5-(trifluoromethyl)pyridin-2-yl]oxy}benzylidene)piperidine-1-carboxamide], the kinact/KI came out at 3620 M⁻¹ s⁻¹.

`O=C(Nc1ccc(Br)nc1)N1CCC(=Cc2cccc(Oc3ccc(C(F)(F)F)cn3)c2)CC1` [Example 28, 4-(3-(5-(trifluoromethyl)pyridin-2-yloxy)benzylidene)-N-(6-bromopyridin-3-yl)piperidine-1-carboxamide]: the kinact/KI is 6190 M⁻¹ s⁻¹.

On to `O=C(Nc1cccnn1)N1CCC(=Cc2cccc(Oc3nccc(C(F)(F)F)n3)c2)CC1` [Example 113, N-pyridazin-3-yl-4-(3-{[4-(trifluoromethyl)pyrimidin-2-yl]oxy}benzylidene)piperidine-1-carboxamide], for which the kinact/KI is 584 M⁻¹ s⁻¹.

As for `COc1ccc(NC(=O)N2CCC(=Cc3cccc(Oc4ccc(C(F)(F)F)cn4)c3)CC2)nn1` [Example 26, N-(6-methoxypyridazin-3-yl)-4-(3-{[5-(trifluoromethyl)pyridin-2-yl]oxy}benzylidene)piperidine-1-carboxamide], the kinact/KI amounted to 11000 M⁻¹ s⁻¹.

As for `Cc1noc(NC(=O)N2CCC(=Cc3cccc(Oc4ccc(C(F)(F)F)cn4)c3)CC2)c1C` [Example 2, N-(3,4-dimethylisoxazol-5-yl)-4-(3-{[5-(trifluoromethyl)pyridin-2-yl]oxy}benzylidene)piperidine-1-carboxamide], the kinact/KI worked out at 5050 M⁻¹ s⁻¹.

For the compound `Cn1cc(NC(=O)N2CCC(=Cc3cccc(Oc4ccc(C(F)(F)F)cn4)c3)CC2)cn1` [Example 137, N-(1-methyl-1H-pyrazol-4-yl)-4-(3-{[5-(trifluoromethyl)pyridin-2-yl]oxy}benzylidene)piperidine-1-carboxamide], the kinact/KI is 1070 M⁻¹ s⁻¹.

Consider `O=C(Nc1ccc2nn[nH]c2c1)N1CCC(=Cc2cccc(Oc3ccc(C(F)(F)F)cn3)c2)CC1` [Example 14, N-1H-1,2,3-benzotriazol-6-yl-4-(3-{[5-(trifluoromethyl)pyridin-2-yl]oxy}benzylidene)piperidine-1-carboxamide], for which the kinact/KI turned out to be 3190 M⁻¹ s⁻¹.

With `CCCc1cnc(Oc2cccc(C=C3CCN(C(=O)Nc4cccnn4)CC3)c2)nc1` [Example 111, 4-{3-[(5-propylpyrimidin-2-yl)oxy]benzylidene}-N-pyridazin-3-ylpiperidine-1-carboxamide], the kinact/KI was 4240 M⁻¹ s⁻¹.

For `O=C(Nc1cccnc1)N1CCC(=Cc2cccc(Oc3ccc(N4CCC4)cn3)c2)CC1` [Example 88, 4-(3-(5-(azetidin-1-yl)pyridin-2-yloxy)benzylidene)-N-(pyridin-3-yl)piperidine-1-carboxamide], the kinact/KI is 3580 M⁻¹ s⁻¹.

With `O=C(Nc1cn[nH]c1)N1CCC(=Cc2cccc(Oc3ccc(C(F)(F)F)cn3)c2)CC1` [Example 138, N-1H-pyrazol-4-yl-4-(3-{[5-(trifluoromethyl)pyridin-2-yl]oxy}benzylidene)piperidine-1-carboxamide], the kinact/KI amounted to 4300 M⁻¹ s⁻¹.

Take `COc1cnc(NC(=O)N2CCC(=Cc3cccc(Oc4ccc(C(F)(F)F)cn4)c3)CC2)cn1` [Example 12, N-(5-methoxypyrazin-2-yl)-4-(3-{[5-(trifluoromethyl)pyridin-2-yl]oxy}benzylidene)piperidine-1-carboxamide]: the kinact/KI turned out to be 10800 M⁻¹ s⁻¹.

The record behind these values is US8044052B2, “Biaryl ether urea compounds” (Pfizer Inc., priority 2006, dated 2011).
